Source: patent US20040186098A1 (Amgen Inc., priority 1997, published 2004)

Legend:
[1] = tested on: hair cells in rat organ of Corti explant; conditions: Compound I 0.05 pM, pretreatment at plating, cisplatin exposure day 2 to day 4; untreated 17%
outer hair cells (OHC) = test: Intramiddle ear neomycin-induced ototoxicity, compound given into the middle ear, outer hair cell loss; assay type: in vivo, guinea pig; conditions: for hair cells (protected) after neomycin: 5 mg neomycin, 14 days after second surgery
Method: Twenty guinea pigs used in this study were divided into two groups: 10 animals received 10 ng and 10 received 1 ng of the sensorineurotrophic compound.
Sensorineurotrophic compound stock A: A stock solution of sensorineurotrophic compound at 1 mg/10 ml in 100% ethanol was prepared and then diluted and mixed in Intralipid at 10 ng/100 μl.
Sensorineurotrophic compound stock B: A stock solution of sensorineurotrophic compound at 1 mg/100 ml in 100% ethanol was prepared and then diluted and mixed in 20% Intralipid at 1 ng/100 μl.
Animals were anesthetized with an intramuscular injection of a mixture of ketamine (80 mg/kg) and xylazine (4 mg/kg). Through a post-auricular incision, the right bulla was identified. A hole was drilled to open the middle ear cavity (care was taken not to injure the tympanic annulus or ossicles). A piece of gelfoam (˜2 mm^3) soaked with the sensorineurotrophic compound solution was inserted into the round window niche. The remaining sensorineurotrophic compound solution (˜100 μl) then was injected into the middle ear cavity. In the 10 ng dose group, 100 μl of sensorineurotrophic compound stock A was administered; and in the 1 ng dose group, 100 μl of sensorineurotrophic compound stock B was administered to the middle ear cavity. The hole was covered with a piece of clear plastic sheet which was stuck on the skull with a superglue. The incision was closed with clips. The same procedure was performed at the left bulla, but 100 μl of vehicle solution instead of sensorineurotrophic compound solution was administered. The animals were maintained in the prone position until they woke up to ensure filling of the middle ear cavity.
After two days, the animals received a second middle ear administration of sensorineurotrophic compound or vehicle together with neomycin. Solutions were prepared for the two groups of animals as follows:
Solution A: Neomycin was dissolved in sensorineurotrophic compound stock A described above. The final concentration of neomycin was 5 mg and the sensorineurotrophic compound concentration was 10 ng in a 100 μl vehicle solution.
Solution B: Neomycin was dissolved in sensorineurotrophic compound stock B described above. The final concentration of neomycin was 5 mg and the concentration of sensorineurotrophic compound was 1 ng in a 100 μl vehicle solution.
Solution C: Neomycin was dissolved in 20% Intralipid to a final concentration of 5 mg in 100 μl vehicle.
The plastic cover sheet on the bulla window was removed and the middle ear cavity was exposed. The old sensorineurotrophic compound or vehicle was sucked off and the old gelfoam was removed from the round window niche. A piece of gelfoam with fresh stock solution containing sensorineurotrophic compound and neomycin was administered to the round window niche, and the remaining solution (˜100 μl, solution A for the 10 ng dose group and solution B for the 1 ng dose group, respectively) was injected into the middle ear cavity of the right bulla.
Solution C (100 μl) was administered to the left ear for both groups in the same way.
Fourteen days after the second surgery, animals were perfused transcardially with a PBS flush followed by a fixative of 4% paraformaldehyde in 0.1M PBS. Immediately following the perfusion, the temporal bone was removed from the head. The bulla was opened and the cochlea was exposed. The apex was opened and the membrane of the round and oval windows was punched. The fixative solution was gently infused into the perilymphatic space through the apex hole and then allowed to flow out from windows. Then the cochleae were post-fixed in the same fixative solution for at least one day.
To identify and count hair cells in the organ of Corti, a direct immunostaining method was used to label the actin present naturally in the stereocilia bundles of the hair cells. The cochlea was dissected and the perilymphatic space was fully exposed. […]

`CCC(C)(C)C(=O)C(=O)N1CCC[C@H]1C(=O)OCCCc1cccnc1` [Compound I] was tested. Which surviving hair cells [1] did it give?
The surviving hair cells was 41.4%.

And the “hair cells (protected) after neomycin” value (outer hair cells (OHC); 1 ng in the middle ear)?
Its value is roughly 70%.

What about the “Neomycin-induced OHC Loss (%), Right (Treated), mean ± SEM” value (outer hair cells (OHC); 1 ng intramiddle ear, turn-1, n = 7) of the same molecule?
Its value is 8.85 ± 1.47%.

What about the “Neomycin-induced OHC Loss (%), Right (Treated), mean ± SEM” value (outer hair cells (OHC); 1 ng intramiddle ear, turn-2, n = 7) of the same molecule?
The value was 4.01 ± 0.53%.

And the “Neomycin-induced OHC Loss (%), Right (Treated), mean ± SEM” value (outer hair cells (OHC); 1 ng intramiddle ear, turn-3, n = 7)?
The value was 0.92 ± 0.10%.

What about the “Neomycin-induced OHC Loss (%), Right (Treated), mean ± SEM” value (outer hair cells (OHC); 1 ng intramiddle ear, turn-4, n = 7) of the same molecule?
Its value is 1.67 ± 1.25%.

And the “Neomycin-induced OHC Loss (%), Right (Treated), mean ± SEM” value (outer hair cells (OHC); 1 ng intramiddle ear, whole cochlea, n = 7)?
Its value is 3.86 ± 0.37%.

And the “hair cells (protected) after neomycin” value (outer hair cells (OHC); 10 ng in the middle ear)?
The value was “around 75%”.

What about the “Neomycin-induced OHC Loss (%), Right (Treated), mean ± SEM” value (outer hair cells (OHC); 10 ng intramiddle ear, turn-1, n = 9) of the same molecule?
Its value is 15.47 ± 6.05%.

And the “Neomycin-induced OHC Loss (%), Right (Treated), mean ± SEM” value (outer hair cells (OHC); 10 ng intramiddle ear, turn-2, n = 9)?
The value was 13.93 ± 10.75%.

What about the “Neomycin-induced OHC Loss (%), Right (Treated), mean ± SEM” value (outer hair cells (OHC); 10 ng intramiddle ear, turn-3, n = 9) of the same molecule?
Its value is 11.64 ± 10.85%.

And the “Neomycin-induced OHC Loss (%), Right (Treated), mean ± SEM” value (outer hair cells (OHC); 10 ng intramiddle ear, turn-4, n = 9)?
Its value is 4.69 ± 2.85%.

And the “Neomycin-induced OHC Loss (%), Right (Treated), mean ± SEM” value (outer hair cells (OHC); 10 ng intramiddle ear, whole cochlea, n = 9)?
The value was 11.44 ± 7.27%.

What about the “protection of hair cells against ototoxicity, in words” value (outer hair cells (OHC); 10 ng or 1 ng in the middle ear, neomycin) of the same molecule?
Its value is “protect completely hair cells against ototoxicity”.

What about the “loss of hair cells, in words (FIGS. 4A and 4B)” value (outer hair cells (OHC); all animals at 1 ng, all but one at 10 ng, neomycin and vehicle: almost complete loss) of the same molecule?
The value was “very minimal loss of hair cells”.
